One assay concerns two-spotted spider mite. The experiment in a line: Test 6: Effect on Two-Spotted Spider mite adults. The note with it: Tetranychus urticae. Type of assay: in vivo. The procedure: (§1) To a mixture of 20 parts of the compound of the present invention and 20 parts of Sorpol SM-200 (registered trademark for the product supplied by Toho Chemical Industrial Co., Ltd.) was added 60 parts of xylol, and the mixture was sufficiently blended. The obtained emulsifiable concentrate was diluted at a predetermined concentration with distilled water, and the obtained dilution was used.
A kidney bean leaf disc perforated with a cork borer (15 mm in diameter) was placed on water-impreganated absorbent cotton (2 cm×2 cm), and 10 adults of two-spotted spider mite were set free. A chemical dilution having a concentration of 500 ppm was applied with an applicator in an amount of 3 ml.
The leaf disc-placed absorbent cotton was placed in a thermostat chamber maintained at 25° C. After 24 hours, the number of killed adults was counted and the mortality was calculated. The test was made on three leaf discs and the average value was calculated.

The test system of assay [1] is resistant green rice leafhopper (collected at Nakagawara). The experiment in a line: Test 3: Effect on Resistant Green Rice Leafhopper. The assay is classed as in vivo, Nephotettix cincticeps Uhler. Particulars: Nephotettix cincticeps, 24 h, read-out: Mortality (%) Green Rice Leafhopper Collected at Nakagawara. The procedure: as §1
(§2) Seedlings (having 2 to 3 leaves) of paddy rice were hydroponically cultured in a pot having a diameter of 5 cm. A chemical dilution having a concentration of 100 or 20 ppm, prepared in the same manner as described in Test 1, was applied with a sprayer at a rate of 3 ml per pot. The treated seedlings were air-dried and covered with a metal net cylinder, and female adults of resistant green rice leafhopper (collected at Nakagawara) and sensitive green rice leafhopper (collected at Chigasaki) were set, respectively, free in the pot at a density of 10 adults per pot. After of 24 hours, the numbers of killed and living adults were counted and the mortality was calculated. The test was made on three pots and the average value was calculated.

Assay [2] relates to sensitive green rice leafhopper (collected at Chigasaki). Description: Test 3: Effect on Sensitive Green Rice Leafhopper. The assay is classed as in vivo. Particulars: Nephotettix cincticeps, female adults, 24 hours. The procedure: as §1, §2
Assay [3] relates to third-instar larvae of diamond back moth. Description: Test 4: Effect on Diamond Back Moth. The assay is classed as in vivo. Particulars: Plutella xylostella, 24 hours. The procedure: as §1
Cabbage leaves were spread in a plastic cup, and 10 third-instar larvae of diamond back moth were set free in the cup.
A chemical dilution having a concentration of 100 or 20 ppm, prepared in the same manner as described in Test 1, was applied from an applicator at a rate of 3 ml per cup.
After scattering of the chemical dilution, the cup was covered, and after 24 hours, the numbers of killed and living larvae were counted and the mortality was calculated. The test was made on three cups and the average value was calculated.

The next assay deals with German cockroach. Description: Test 7: Effect on German Cockroach. Type of assay: in vivo. Particulars: Blattella germanica, male adults, 24 hours, agonized and killed; for mortality at 10 mg/m2: 10 mg/m^2; for mortality at 50 mg/m2: 50 mg/m^2. As for the experimental part: The bottom face of a high Petri dish having a diameter of 9 cm and a height of 9 cm was treated with 50 or 10 mg/m^2 of a test compound and the dish was air-dried. In order to prevent the adults from escaping from the dish, the inner wall of the dish was treated with butter. Then, 10 male adults of German cockroach were set free in each dish, and the dish was placed in a thermostat chamber maintained at 25° C. After 24 hours, the number of agonized and killed adults was counted. The test was made on two dishes and the average value was calculated.

Assay [4] has as its system Second-instar and fifth-instar larvae of tobacco cutworm. The experiment in a line: Test 2: Tobacco Cutworm Larva Dipping Test. Type of assay: in vivo. As for the experimental part:
as §1
A dilution having a chemical concentration of 100 or 20 ppm was prepared in the same manner as described in Test 1.
Second-instar and fifth-instar larvae of tobacco cutworm were dipped in the dilution for 5 seconds, and the excessive dilution was removed by a filter paper. Then, the larvae were set free in a plastic cup and an artificial diet was supplied thereto. The cup was allowed to stand still in a thermostat chamber maintained at 25° C. After 24 hours, the numbers of the killed and living larvae were counted and the mortality was calculated. The test was made on three cups and the result was expressed by an average value.

Where [5] appears, read: 500 ppm, adults, 24 hours, read-out: Mortality (%).
The mark [6] stands for this setting: 20 ppm, second-instar larvae, 24 hours, read-out: Mortality (%) Second-Instar Larvae.
The mark [7] stands for this setting: 100 ppm, second-instar larvae, 24 hours, read-out: Mortality (%) Second-Instar Larvae.
Setting [8] is: topical, 24 h, read-out: Mortality (%) Fifth-Instar Larvae.

The record followed here is patent US4599362A, “2-aryl-ethyl ether derivatives and insecticidal and acaricidal agents containing said derivatives” (priority 1980, dated 1986).

Read-outs that look alike come from different tables or passages of the source.

In the assay with two-spotted spider mite (24 h), `CCOP(=S)(OCC)Oc1ccc(=O)n(-c2ccccc2)n1` [(d), 0,0-diethyl-0-(3-oxo-2-phenyl-2H-pyridazin-6-yl)-phosphorothioate, reference compound] came in with a mortality at 500 ppm of 80%.

For `CC(C)(COCc1ccc(F)c(Oc2ccccc2F)c1)c1ccc(Cl)cc1` [Compound 11, 3-(2-Fluorophenoxy)-4-fluorobenzyl 2-(4-chlorophenyl)-2-methylpropyl ether], in assay [1], the mortality at 20 ppm is 100% and the mortality at 100 ppm turned out to be 100%. Besides, in assay [2], the mortality at 20 ppm came out at 100% and the mortality at 100 ppm was determined as 100%. In assay [3], this molecule registered a mortality at 20 ppm of 100% and a mortality at 100 ppm of 100%. The mortality at 500 ppm in the assay on two-spotted spider mite (setting [5]) turned out to be 100%. In the assay on German cockroach, the mortality at 10 mg/m2 worked out at 100% and the mortality at 50 mg/m2 is 100%.

With `CC(C)(COCc1ccc(F)c(Oc2ccccc2)c1)c1cccc(C(F)(F)F)c1` [Compound 17, 3-Phenoxy-4-fluorobenzyl 2-(3-trifluoromethylphenyl)-2-methylpropyl ether], in assay [1], the mortality at 20 ppm came to 100% and the mortality at 100 ppm came to 100%. In assay [2], the mortality at 20 ppm is 90% and the mortality at 100 ppm stood at 100%.

As to `Cc1cccc(Oc2cc(COCC(C)(C)c3ccc(Cl)cc3)ccc2F)c1` [Compound 22, 3-(3-Methylphenoxy)-4-fluorobenzyl 2-(4-chlorophenyl)-2-methylpropyl ether], the figures for the mortality at 20 ppm in assay [1] and in assay [2] were 75% and 60%, respectively. The mortality at 100 ppm in assay [1] and in assay [2] was 100% each time.

As for `CC(C)(COCc1ccc(F)c(Oc2ccccc2)c1)c1ccc([N+](=O)[O-])cc1` [Compound 30, 3-Phenoxy-4-fluorobenzyl 2-(4-nitrophenyl)-2-methylpropyl ether], in assay [1], the mortality at 20 ppm came to 90% and the mortality at 100 ppm came to 100%. In assay [2], the mortality at 20 ppm was 80% and the mortality at 100 ppm came out at 100%.

Turning to `CC(C)(COCc1ccc(F)c(Oc2ccccc2)c1)c1ccc2c(c1)OCO2` [Compound 33, 3-Phenoxy-4-fluorobenzyl 2-(3,4-methylenedioxyphenyl)-2-methylpropyl ether], in assay [1], the mortality at 20 ppm came out at 100% and the mortality at 100 ppm is 100%. In assay [2], the mortality at 20 ppm turned out to be 100% and the mortality at 100 ppm is 100%.

Regarding `CCOc1ccc(C(CC)COCc2ccc(F)c(Oc3ccccc3)c2)cc1` (stereo not shown) [Compound 47, 3-Phenoxy-4-fluorobenzyl 2-(4-ethoxyphenyl)-butylether], in assay [3], the mortality at 20 ppm amounted to 100% and the mortality at 100 ppm is 100%. Also, the mortality at 500 ppm in the assay with two-spotted spider mite (setting [5]) was determined as 85%. In the assay with German cockroach, this molecule had a mortality at 10 mg/m2 of 100% and a mortality at 50 mg/m2 of 100%.

For `CC(C)(COCc1ccc(F)c(Oc2ccccc2)c1)c1ccc(F)c(Cl)c1` [Compound 50, 3-Phenoxy-4-fluorobenzyl 2-(3-chloro-4-fluorophenyl)-2-methylpropyl ether], in assay [4] (setting [6]), the mortality at 20 ppm is 90%. The mortality at 100 ppm in assay [4] (setting [7]) came to 100%. In assay [4] (setting [8]), the mortality at 20 ppm turned out to be 80% and the mortality at 100 ppm is 100%. In the assay with German cockroach, this molecule displayed a mortality at 10 mg/m2 of 100% and a mortality at 50 mg/m2 of 100%.

For the molecule `CCOc1ccc(Oc2cc(COCC(C)(C)c3ccc(OCC)cc3)ccc2F)cc1` [Compound 53, 3-(4-Ethoxyphenoxy)-4-fluorobenzyl 2-(4-ethoxyphenyl)-2-methylpropyl ether], in assay [1], the mortality at 20 ppm turned out to be 100% and the mortality at 100 ppm turned out to be 100%. In assay [2], the mortality at 20 ppm stood at 90% and the mortality at 100 ppm worked out at 100%. Also, in the assay with German cockroach, the mortality at 10 mg/m2 worked out at 100% and the mortality at 50 mg/m2 was 100%.

In assay [3], `CCOc1ccc(C(C)(CC)COCc2ccc(F)c(Oc3ccccc3)c2)cc1` (stereo not shown) [Compound 55, 3-Phenoxy-4-fluorobenzyl 2-(4-ethoxyphenyl)-2-methylbutyl ether] displayed a mortality at 20 ppm of 100% and a mortality at 100 ppm of 100%. Further, in the assay on German cockroach, the mortality at 10 mg/m2 was determined as 100% and the mortality at 50 mg/m2 came to 100%.

As to `CCOc1cccc(C(C)(C)COCc2ccc(F)c(Oc3ccccc3)c2)c1` [Compound 57], the mortality at 20 ppm in assay [1], in assay [2] and in assay [3] was 100% throughout. The mortality at 100 ppm in assay [1], in assay [2] and in assay [3] was 100% each time.

Consider `CC(C)c1ccc(C(C)(C)COCc2ccc(F)c(Oc3ccccc3)c2)cc1` [Compound 58], for which, in assay [1], the mortality at 20 ppm came to 100% and the mortality at 100 ppm was determined as 100%. In assay [2], this molecule registered a mortality at 20 ppm of 100% and a mortality at 100 ppm of 100%. Further, the mortality at 500 ppm in the assay on two-spotted spider mite (setting [5]) is 100%. Besides, in the assay with German cockroach, the mortality at 10 mg/m2 worked out at 100% and the mortality at 50 mg/m2 is 100%.

Consider `CCOc1ccc(C(COCc2ccc(F)c(Oc3ccccc3)c2)C(C)C)cc1` (stereo not shown) [Compound 62, 3-Phenoxy-4-fluorobenzyl 2-(4-ethoxyphenyl)-3-methylbutyl ether], for which the mortality at 20 ppm in assay [1], in assay [2] and in assay [3] was 100% in each case. Further, the mortality at 100 ppm in assay [1], in assay [2] and in assay [3] was 100% in each case.

With `CCC(C)Oc1ccc(C(C)(C)COCc2ccc(F)c(Oc3ccccc3)c2)cc1` (stereo not shown) [Compound 63], in assay [1], the mortality at 20 ppm is 100% and the mortality at 100 ppm was determined as 100%. In assay [2], this molecule returned a mortality at 20 ppm of 100% and a mortality at 100 ppm of 100%. Besides, the mortality at 500 ppm in the assay on two-spotted spider mite (setting [5]) was determined as 100%. Moreover, in the assay on German cockroach, the mortality at 10 mg/m2 is 100% and the mortality at 50 mg/m2 is 100%.

In the case of `CCCOc1ccc(C(C)(C)COCc2ccc(F)c(Oc3ccccc3)c2)cc1` [Compound 65], in assay [1], the mortality at 20 ppm was 100% and the mortality at 100 ppm came out at 100%. Further, in assay [2], the mortality at 20 ppm stood at 100% and the mortality at 100 ppm was 100%. In assay [3], the mortality at 20 ppm is 100% and the mortality at 100 ppm worked out at 100%. In the assay on German cockroach, this molecule gave a mortality at 10 mg/m2 of 100% and a mortality at 50 mg/m2 of 100%.

Regarding `CC(C)(COCc1ccc(F)c(Oc2ccccc2)c1)c1ccc(I)cc1` [Compound 66, 3-Phenoxy-4-fluorobenzyl 2-(4-iodophenyl)-2-methylpropyl ether], the mortality at 20 ppm in assay [4] (setting [6]) was 90%; in assay [4] (setting [8]), 75%; in assay [1] it was 100%; in assay [2], 100%; in assay [3], 90%. Besides, the mortality at 100 ppm in assay [4] (setting [7]), in assay [4] (setting [8]), in assay [1], in assay [2] and in assay [3] was 100% throughout. In addition, the mortality at 500 ppm in the assay with two-spotted spider mite (setting [5]) was 100%. Further, the mortality at 10 mg/m2 in the assay with German cockroach was determined as 100%. Also, the mortality at 50 mg/m2 in the assay with German cockroach was determined as 100%.

By mortality is commonly meant the percentage killed.
